Drawing on patent publication US10988478B1, “Pyrazolo[1,5a]pyrimidine derivatives as IRAK4 modulators” (Genentech, Inc., priority 2015, dated 2021), this text covers Ki for 22 molecules.

Usually Ki stands for a dissociation constant, usually derived from enzyme kinetics or from competition with a known ligand.

The assay deals with human IRAK4 (Homo sapiens (Human), UniProt Q9NWZ3). The assay can be described thus: IRAK4 kinase inhibition, Transcreener fluorescence polarization ADP assay. The format is biochemical. The following applies: recombinant full-length His6-IRAK4; 125 uM ATP; 90 min; Ki computed using ATP Km 642 uM. The method, then: Compounds were assayed for inhibition of human IRAK4 and IRAK1 catalytic activity using recombinant enzyme produced from insect cells. Full-length IRAK4 protein, carrying an N-terminal His6-Tag, was obtained from Life Technologies (Carlsbad, Calif., USA). The IRAK1 construct was produced internally and was comprised of IRAK1 residues Arg194 to Ser712, preceded by an NH2-terminal His6 tag and the coding sequence for glutathione-S-transferase.
Sequence of human IRAK4 (Q9NWZ3 whole entry, the tested form may be a part): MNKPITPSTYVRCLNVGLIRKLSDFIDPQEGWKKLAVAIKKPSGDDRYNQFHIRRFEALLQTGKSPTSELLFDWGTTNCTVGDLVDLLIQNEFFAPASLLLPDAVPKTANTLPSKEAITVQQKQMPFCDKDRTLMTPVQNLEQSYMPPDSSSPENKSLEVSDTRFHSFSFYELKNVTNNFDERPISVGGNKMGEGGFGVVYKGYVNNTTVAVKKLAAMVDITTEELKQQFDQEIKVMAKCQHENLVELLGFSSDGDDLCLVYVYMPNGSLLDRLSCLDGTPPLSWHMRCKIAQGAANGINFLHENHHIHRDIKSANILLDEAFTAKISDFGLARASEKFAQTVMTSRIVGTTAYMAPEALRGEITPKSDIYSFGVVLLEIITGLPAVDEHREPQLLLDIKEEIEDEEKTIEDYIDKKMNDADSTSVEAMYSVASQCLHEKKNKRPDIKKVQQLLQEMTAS
A general note: Polarisation of emitted light reports the rotation of a fluorescent probe.
As for `CN1CCC2(CC1)Cc1cc(NC(=O)c3cnn4cccnc34)c(N3CCOCC3)cc1O2` [Example 152, N-(1′-Methyl-6-morpholino-3H-spiro[benzofuran-2,4′-piperidine]-5-yl)pyrazolo[1,5-a]pyrimidine-3-carboxamide], the Ki came to 12 nM.

For `O=C(Nc1cc2c(cc1N1CCOCC1)O[C@](CO)(C(F)(F)F)C2)c1cnn2cccnc12` [Example 153, (R)—N-(2-(hydroxymethyl)-6-morpholino-2-(trifluoromethyl)-2,3-dihydrobenzofuran-5-yl)pyrazolo[1,5-a]pyrimidine-3-carboxamide], the Ki amounted to 14 nM. The value for `O=C(Nc1cc2c(cc1N1CCOCC1)O[C@@](CO)(C(F)(F)F)C2)c1cnn2cccnc12` [Example 154, (S)—N-(2-(hydroxymethyl)-6-morpholino-2-(trifluoromethyl)-2,3-dihydrobenzofuran-5-yl)pyrazolo[1,5-a]pyrimidine-3-carboxamide] was 9.3 nM; that for `C[C@]1(COC(F)F)Cc2cc(NC(=O)c3cnn4cccnc34)c(N3CCOCC3)cc2O1` [Example 155, (R)—N-(2-((difluoromethoxy)methyl)-2-Methyl-6-morpholino-2,3-dihydrobenzofuran-5-yl)pyrazolo[1,5-a]pyrimidine-3-carboxamide] was 22 nM; that for `C[C@@]1(COC(F)F)Cc2cc(NC(=O)c3cnn4cccnc34)c(N3CCOCC3)cc2O1` [Example 156, (S)—N-(2-((difluoromethoxy)methyl)-2-Methyl-6-morpholino-2,3-dihydrobenzofuran-5-yl)pyrazolo[1,5-a]pyrimidine-3-carboxamide] was 27 nM. `CC(C)(O)[C@@]1(C)Cc2cc(NC(=O)c3cnn4cccnc34)c(N3CCOCC3)cc2O1` [Example 157, (R)—N-(2-(2-Hydroxypropan-2-yl)-2-methyl-6-morpholino-2,3-dihydrobenzofuran-5-yl)pyrazolo[1,5-a]pyrimidine-3-carboxamide]: the Ki was 8.8 nM. Regarding `CC(C)(O)[C@]1(C)Cc2cc(NC(=O)c3cnn4cccnc34)c(N3CCOCC3)cc2O1` [Example 158, (S)—N-(2-(2-Hydroxypropan-2-yl)-2-methyl-6-morpholino-2,3-dihydrobenzofuran-5-yl)pyrazolo[1,5-a]pyrimidine-3-carboxamide], the Ki amounted to 27 nM. In the case of `C[C@]1(C2CC2)Cc2cc(NC(=O)c3cnn4cccnc34)c(N3CCN(CC(F)F)CC3)cc2O1` [Example 159, (R)—N-(2-Cyclopropyl-6-(4-(2,2-difluoroethyl)piperazin-1-yl)-2-methyl-2,3-dihydrobenzofuran-5-yl)pyrazolo[1,5-a]pyrimidine-3-carboxamide], the Ki was found to be 4.4 nM. In the case of `C[C@@]1(C2CC2)Cc2cc(NC(=O)c3cnn4cccnc34)c(N3CCN(CC(F)F)CC3)cc2O1` [Example 160, (S)—N-(2-Cyclopropyl-6-(4-(2,2-difluoroethyl)piperazin-1-yl)-2-methyl-2,3-dihydrobenzofuran-5-yl)pyrazolo[1,5-a]pyrimidine-3-carboxamide], the Ki was 4.8 nM. As for `C[C@]1(C2CC2)Cc2cc(NC(=O)c3cnn4cccnc34)c(N3CCC(F)(CO)CC3)cc2O1` [Example 161, (R)—N-(2-Cyclopropyl-6-(4-fluoro-4-(hydroxymethyl)piperidin-1-yl)-2-methyl-2,3-dihydrobenzofuran-5-yl)pyrazolo[1,5-a]pyrimidine-3-carboxamide], the figure is 3.8 nM; as for `C[C@@]1(C2CC2)Cc2cc(NC(=O)c3cnn4cccnc34)c(N3CCC(F)(CO)CC3)cc2O1` [Example 162, (S)—N-(2-Cyclopropyl-6-(4-fluoro-4-(hydroxymethyl)piperidin-1-yl)-2-methyl-2,3-dihydrobenzofuran-5-yl)pyrazolo[1,5-a]pyrimidine-3-carboxamide], 4.5 nM. On to `C[C@]1(CO)Cc2cc(NC(=O)c3cnn4cc(Cl)cnc34)c(N3CCC(CO)CC3)cc2O1` [Example 163, (R)-6-Chloro-N-(2-(hydroxymethyl)-6-(4-(hydroxymethyl)piperidin-1-yl)-2-methyl-2,3-dihydrobenzofuran-5-yl)pyrazolo[1,5-a]pyrimidine-3-carboxamide], for which the Ki was found to be 3.9 nM. As for `C[C@@]1(CO)Cc2cc(NC(=O)c3cnn4cc(Cl)cnc34)c(N3CCC(CO)CC3)cc2O1` [Example 164, (S)-6-Chloro-N-(2-(hydroxymethyl)-6-(4-(hydroxymethyl)piperidin-1-yl)-2-methyl-2,3-dihydrobenzofuran-5-yl)pyrazolo[1,5-a]pyrimidine-3-carboxamide], the Ki came to 2.8 nM. As for `C[C@@]1(CO)Cc2cc(NC(=O)c3cnn4cc(Cl)cnc34)c(N3CCOCC3)cc2O1` [Example 165, (S)-6-Chloro-N-(2-(hydroxymethyl)-2-methyl-6-morpholino-2,3-dihydrobenzofuran-5-yl)pyrazolo[1,5-a]pyrimidine-3-carboxamide], the figure is 5.6 nM; as for `CC1(C)Cc2cc(NC(=O)c3cnn4cc(Cl)cnc34)c(N3CCC4(CCOC4)CC3)cc2O1` [Example 167, 6-Chloro-N-(2,2-dimethyl-6-(2-oxa-8-azaspiro[4.5]decan-8-yl)-2,3-dihydrobenzofuran-5-yl)pyrazolo[1,5-a]pyrimidine-3-carboxamide], 2.8 nM; as for `CC1(CO)Cc2cc(NC(=O)c3cnn4cc(Cl)cnc34)c(N3CCN(CC(F)F)CC3)cc2O1` (stereo not shown) [Example 168], 3.6 nM.

As to `C[C@]1(CO)Cc2cc(NC(=O)c3cnn4cc(Cl)cnc34)c(N3CCN(CC(F)F)CC3)cc2O1` [Example 170, (R)-6-Chloro-N-(6-(4-(2,2-difluoroethyl)piperazin-1-yl)-2-(hydroxymethyl)-2-methyl-2,3-dihydrobenzofuran-5-yl)pyrazolo[1,5-a]pyrimidine-3-carboxamide], the Ki is 3 nM. As for `C[C@]1(CO)Cc2cc(NC(=O)c3cnn4cccnc34)c(OC(F)(F)F)cc2O1` [Example 171, (R)—N-(2-(Hydroxymethyl)-2-methyl-6-(trifluoromethoxy)-2,3-dihydrobenzofuran-5-yl)pyrazolo[1,5-a]pyrimidine-3-carboxamide], the figure is 38 nM. With `C[C@@]1(CO)Cc2cc(NC(=O)c3cnn4cccnc34)c(OC(F)(F)F)cc2O1` [Example 172, (S)—N-(2-(hydroxymethyl)-2-methyl-6-(trifluoromethoxy)-2,3-dihydrobenzofuran-5-yl)pyrazolo[1,5-a]pyrimidine-3-carboxamide], the Ki stood at 16 nM. For the molecule `O=C(Nc1cc2c(cc1N1CCOCC1)C(=O)N(CC(F)(F)F)C2)c1cnn2cccnc12` [Example 173, N-[6-Morpholino-1-oxo-2-(2,2,2-trifluoroethyl)isoindolin-5-yl]pyrazolo[1,5-a]pyrimidine-3-carboxamide], the Ki was found to be 29 nM. Take `O=C(Nc1cc2c(cc1N1CCOCC1)C(=O)N(CC(F)F)C2)c1cnn2cccnc12` [Example 174, N-[2-(2,2-difluoroethyl)-6-morpholino-1-oxo-isoindolin-5-yl]pyrazolo[1,5-a]pyrimidine-3-carboxamide]: the Ki stood at 20 nM.

Consider `CC(C)(O)CCN1Cc2cc(NC(=O)c3cnn4cccnc34)c(N3CCOCC3)cc2C1=O` [Example 175, N-[2-(3-hydroxy-3-methyl-butyl)-6-morpholino-1-oxo-isoindolin-5-yl]pyrazolo[1,5-a]pyrimidine-3-carboxamide], for which the Ki turned out to be 2.2 nM.
